Measurements from patent US9981944B2, “GDF-8 inhibitors” (Rigel Pharmaceuticals, Inc., priority 2015, dated 2018).
Counter-ions that a name gives are not always drawn.

Assays:
[1] = test system: TGF-β signaling (p-SMAD-3 Ser423/425); experiment: AlphaScreen SureFire SMAD3 (p-Ser423/425) assay, TGF-β stimulated (TGF-β pSMAD (MPC-11)); format: cell-based
[2] = test system: GDF8 signaling (p-SMAD-3 Ser423/425); experiment: AlphaScreen SureFire SMAD3 (p-Ser423/425) assay, GDF8 stimulated (GDF pSMAD (MPC11)); format: cell-based; conditions: Mus musculus, MPC-11, inhibition of GDF8 signaling
HIS-TGFβR2 WT = HIS-TGFβR2 WT (Homo sapiens (Human), UniProt P37173); experiment: HTRF probe displacement assay, HIS-TGFβR2 WT; format: binding; conditions: 1 nM HIS-TGFβR2 WT, 1 hour at room temperature, read-out: TGFBR2WT IC50
Chain of HIS-TGFβR2 WT (P37173 23-567): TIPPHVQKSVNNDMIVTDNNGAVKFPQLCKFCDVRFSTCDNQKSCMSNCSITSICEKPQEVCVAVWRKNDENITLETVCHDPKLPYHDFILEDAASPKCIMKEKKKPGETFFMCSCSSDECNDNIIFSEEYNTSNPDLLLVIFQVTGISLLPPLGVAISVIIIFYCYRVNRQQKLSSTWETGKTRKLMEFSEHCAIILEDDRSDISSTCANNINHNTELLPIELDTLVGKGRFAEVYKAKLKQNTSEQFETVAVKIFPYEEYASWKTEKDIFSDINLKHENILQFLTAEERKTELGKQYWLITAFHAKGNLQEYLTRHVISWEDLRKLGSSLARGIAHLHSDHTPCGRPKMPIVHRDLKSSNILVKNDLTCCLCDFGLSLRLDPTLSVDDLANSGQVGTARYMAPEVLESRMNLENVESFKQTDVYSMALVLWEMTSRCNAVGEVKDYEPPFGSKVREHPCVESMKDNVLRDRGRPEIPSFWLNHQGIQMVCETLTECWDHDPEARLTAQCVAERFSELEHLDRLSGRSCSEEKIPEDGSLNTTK
Method: (§1) Compounds were dissolved at 10 mM in dimethylsulfoxide (DMSO) and evaluated at eleven concentrations. IC50 values were derived by non-linear regression analysis.

HIS-TGFβR1 T204D = HIS-TGFβR1 T204D (Homo sapiens (Human), UniProt P36897, T204D); experiment: HTRF probe displacement assay, HIS-TGFβR1 T204D; format: binding; conditions: 1 nM HIS-TGFβR1 T204D, 1 hour at room temperature, read-out: TGFBR1T204D IC50
Chain of HIS-TGFβR1 T204D (P36897 34-503 T204D): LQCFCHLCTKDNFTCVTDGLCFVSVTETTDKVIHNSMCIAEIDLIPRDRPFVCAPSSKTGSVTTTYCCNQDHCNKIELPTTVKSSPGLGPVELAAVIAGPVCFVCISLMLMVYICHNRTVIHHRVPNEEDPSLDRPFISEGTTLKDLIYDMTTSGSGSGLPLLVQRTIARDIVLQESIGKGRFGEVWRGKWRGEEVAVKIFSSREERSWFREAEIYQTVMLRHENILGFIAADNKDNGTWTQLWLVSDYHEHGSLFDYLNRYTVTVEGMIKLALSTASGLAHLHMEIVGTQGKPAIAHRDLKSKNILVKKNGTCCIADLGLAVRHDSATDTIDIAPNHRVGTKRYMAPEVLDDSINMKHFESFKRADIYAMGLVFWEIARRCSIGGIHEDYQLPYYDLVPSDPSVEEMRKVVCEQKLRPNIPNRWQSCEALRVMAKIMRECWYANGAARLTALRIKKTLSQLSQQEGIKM
Method: as §1

[3] = Mus musculus, MPC-11, inhibition of TGF-β signaling

SMILES	IC50 [2]	IC50 (HIS-TGFβR2 WT)	IC50 (HIS-TGFβR1 T204D)	further results
Cc1cccc(-c2ncccc2-c2ccc3ncnc(N)c3c2)n1 [Compound 2B, 6-(6′-methyl-[2,2′-bipyridin]-3-yl)quinazolin-4-aminium formate]				IC50 ([1]; inhibition of TGF-β signaling, formate): 112 nM
Nc1ncnc2ccc(-c3cccnc3-c3cccc(F)n3)cc12 [Compound 11A, 6-(6′-fluoro-[2,2′-bipyridin]-3-yl)quinazolin-4-aminium 2,2,2-trifluoroacetate]	229 nM			IC50 [1, 3]: 1170 nM
N#Cc1cnc2ccc(-c3cccnc3-c3ccccn3)cn12 [Compound 7, 6-([2,2′-Bipyridin]-3-yl)imidazo[1,2-a]pyridine-3-carbonitrile]	8510 nM			
Cc1cccc(-c2ncccc2-c2ccc3ncc(C#N)n3c2)n1 [Compound 3, 6-(6′-Methyl-[2,2′-bipyridin]-3-yl)imidazo[1,2-a]pyridine-3-carbonitrile]	734 nM			IC50 [1, 3]: 1710 nM
Cc1cccc(-c2ncccc2-c2ccc3ncnc(N)c3c2)n1 [Compound 2A, 6-(6′-methyl-[2,2′-bipyridin]-3-yl)quinazolin-4-aminium 2,2,2-trifluoroacetate]	129 nM			IC50 ([1]; inhibition of TGF-β signaling, 2,2,2-trifluoroacetate): 251 nM
Cc1cccc(-c2ncccc2-c2ccnc3ccccc23)n1 [Compound 1, 4-(6′-Methyl-[2,2′-bipyridin]-3-yl)quinolone]	19700 nM			IC50 [1, 3]: 10600 nM
NC(=O)c1cnc2ccc(-c3cccnc3-c3ccccn3)cn12 [Compound 9, 6-([2,2′-Bipyridin]-3-yl)imidazo[1,2-a]pyridine-3-carboxamide]	119 nM			IC50 [1, 3]: 281 nM
Nc1ncnc2ccc(-c3cccnc3-c3ccccn3)cc12 [Compound 12A, 6-([2,2′-bipyridin]-3-yl)quinazolin-4-aminium formate]	1310 nM			IC50 [1, 3]: 5480 nM
c1ccc(-c2ncccc2-c2ccc3ncnn3c2)nc1 [Compound 8, 6-([2,2′-Bipyridin]-3-yl)-[1,2,4]triazolo[1,5-a]pyridine]	8060 nM			IC50 [1, 3]: 23600 nM
Cc1cccc(-c2ncccc2-c2ccc3ncc(C(N)=O)n3c2)n1 [Compound 6, 6-(6′-Methyl-[2,2′-bipyridin]-3-yl)imidazo[1,2-a]pyridine-3-carboxamide]	28.6 nM			IC50 [1, 3]: 53.8 nM
Cc1cccc(-c2ncccc2-c2ccn3ncc(C(=O)NC4COC4)c3n2)n1 [Compound 129, 5-(6′-methyl-[2,2′-bipyridin]-3-yl)-N-(oxetan-3-yl)pyrazolo[1,5-a]pyrimidine-3-carboxamide]		> 15000 nM	29 nM	
N#Cc1cnc2ccc(-c3cccnc3-c3ccc(F)cn3)cn12 [Compound 20, 6-(5′-fluoro-[2,2′-bipyridin]-3-yl)imidazo[1,2-a]pyridine-3-carbonitrile]		> 15000 nM	103 nM	
CC(=O)Nc1cn2cc(-c3cccnc3-c3cccc(C)n3)ccc2n1 [Compound 76, N-(6-(6′-methyl-[2,2′-bipyridin]-3-yl)imidazo[1,2-a]pyridin-2-yl)acetamide]		> 15000 nM	1 nM	
Cc1cccc(-c2ncccc2-c2ccc3nc(C(N)=O)cn3c2)n1 [Compound 80, 6-(6′-methyl-[2,2′-bipyridin]-3-yl)imidazo[1,2-a]pyridine-2-carboxamide]		> 15000 nM	1020 nM	
Cc1cccc(-c2ncccc2-c2ccc3ncnn3c2)n1 [Compound 4, 6-(6′-Methyl-[2,2′-bipyridin]-3-yl)-[1,2,4]triazolo[1,5-a]pyridine]	215 nM			IC50 [1, 3]: 501 nM
NC(=O)c1cnc2ccc(-c3cccnc3-c3cccc(C(F)F)n3)cn12 [Compound 29, 6-(6′-(difluoromethyl)-[2,2′-bipyridin]-3-yl)imidazo[1,2-a]pyridine-3-carboxamide]		> 15000 nM	1 nM	
Cc1cccc(-c2ncccc2-c2ccc3nccnc3c2)n1 [Compound 113, 6-(6′-methyl-[2,2′-bipyridin]-3-yl)quinoxaline]		> 15000 nM	9 nM	

SMILES	IC50 [2]	IC50 (HIS-TGFβR2 WT)	IC50 (HIS-TGFβR1 T204D)	further results
Cc1nc(-c2ncccc2-c2ccn3nccc3n2)ccc1F [Compound 137, 5-(5′-fluoro-6′-methyl-[2,2′-bipyridin]-3-yl)pyrazolo[1,5-a]pyrimidine]		> 15000 nM	8 nM	
CC(=O)Nc1ccnc(-c2cccc(C)n2)c1-c1ccc2ncc(C(N)=O)n2c1 [Compound 102, 6-(4-acetamido-6′-methyl-[2,2′-bipyridin]-3-yl)imidazo[1,2-a]pyridine-3-carboxamide]		> 15000 nM	716 nM	
NC(=O)c1cn2cc(-c3cccnc3-c3cccc(C(F)(F)F)n3)ccc2n1 [Compound 79, 6-(6′-(trifluoromethyl)-[2,2′-bipyridin]-3-yl)imidazo[1,2-a]pyridine-2-carboxamide]		> 15000 nM	15000 nM	
NC(=O)c1cnc2ccc(-c3cccnc3-c3cccc(C(F)F)n3)nn12 [Compound 52, 6-(6′-(difluoromethyl)-[2,2′-bipyridin]-3-yl)imidazo[1,2-b]pyridazine-3-carboxamide]		> 15000 nM	30 nM	
Cc1cccc(-c2nccc(N)c2-c2ccc3ncc(C(N)=O)n3c2)n1 [Compound 101, 6-(4-amino-6′-methyl-[2,2′-bipyridin]-3-yl)imidazo[1,2-a]pyridine-3-carboxamide]		> 15000 nM	5 nM	
Cc1cccc(-c2ncccc2-c2ccn3ncnc3c2)n1 [Compound 5, 7-(6′-Methyl-[2,2′-bipyridin]-3-yl)-[1,2,4]triazolo[1,5-a]pyridine]	280 nM			IC50 [1, 3]: 1070 nM
Nc1ncnc2ccc(-c3cccnc3-c3cccc(C(F)F)n3)cc12 [Compound 109, 6-(6′-(difluoromethyl)-[2,2′-bipyridin]-3-yl)quinazolin-4-amine]		> 15000 nM	2 nM	
COc1cccc(-c2ncccc2-c2ccc3ncc(C#N)n3c2)n1 [Compound 17, 6-(6′-methoxy-[2,2′-bipyridin]-3-yl)imidazo[1,2-a]pyridine-3-carbonitrile]		> 15000 nM	9 nM	
N#Cc1cnc2ccc(-c3cccnc3-c3cccc(F)n3)cn12 [Compound 36, 6-(6′-fluoro-[2,2′-bipyridin]-3-yl)imidazo[1,2-a]pyridine-3-carbonitrile]		> 15000 nM	120 nM	
NC(=O)c1cnc2ccc(-c3cccnc3-c3cccc(C4CC4)n3)cn12 [Compound 35, 6-(6′-cyclopropyl-[2,2′-bipyridin]-3-yl)imidazo[1,2-a]pyridine-3-carboxamide]		> 15000 nM	1 nM	
Cc1nc(-c2ncccc2-c2ccc3ncc(C(N)=O)n3n2)ccc1F [Compound 43, 6-(5′-fluoro-6′-methyl-[2,2′-bipyridin]-3-yl)imidazo[1,2-b]pyridazine-3-carboxamide]		> 15000 nM	17 nM	
CCOC(=O)c1cnn2ccc(-c3cccnc3-c3ccc(F)c(C)n3)nc12 [Compound 130, ethyl 5-(5′-fluoro-6′-methyl-[2,2′-bipyridin]-3-yl)pyrazolo[1,5-a]pyrimidine-3-carboxylate]		> 15000 nM	14 nM	
N#Cc1cnc2ccc(-c3cccnc3-c3cccc(C4CC4)n3)cn12 [Compound 34, 6-(6′-cyclopropyl-[2,2′-bipyridin]-3-yl)imidazo[1,2-a]pyridine-3-carbonitrile]		> 15000 nM	19 nM	
CC(C)(O)c1cccc(-c2ncccc2-c2ccc3ncc(C#N)n3c2)n1 [Compound 41]		> 15000 nM	15000 nM	
Fc1ccc(-c2ncccc2-c2ccc3nccn3c2)nc1C(F)F [Compound 48, 6-(6′-(difluoromethyl)-5′-fluoro-[2,2′-bipyridin]-3-yl)imidazo[1,2-a]pyridine]		> 15000 nM	26 nM	
Cc1cccc(-c2ncccc2-c2ccc3ncc(C(=O)NC4COC4)n3n2)n1 [Compound 74, 6-(6′-methyl-[2,2′-bipyridin]-3-yl)-N-(oxetan-3-yl)imidazo[1,2-b]pyridazine-3-carboxamide]		> 15000 nM	108 nM	
Cc1nc(-c2ncccc2-c2ccc3ncc(C#N)n3c2)ccc1F [Compound 15, 6-(5′-fluoro-6′-methyl-[2,2′-bipyridin]-3-yl)imidazo[1,2-a]pyridine-3-carbonitrile]		> 15000 nM	10 nM	
